Where two headings read alike, the source gives them in different places.
Key:
[1] = test system: SKOV-3; assay: Cell viability assay (MTS), SKOV-3; type: cell-based, human; settings: Homo sapiens, SK-OV-3, ovarian cancer cells, 48 h, mean ± SD
Method: (§1) Five thousand cells/well were plated in 96-well plates in growth media and left for attachment for 24 h. The cells were then treated with the respective compounds using varying concentrations for 48 h. At the end of the treatment duration, a solution of MTS [3-(4,5-dimethylthiazol-2-yl)-5-(3-carboxymethoxyphenyl)-2-(4-sulfophenyl)-2H-tetrazolium] and an electron coupling reagent, PES (phenazine ethosulfate) (Promega, Madison, WI, USA) was added to the cells. Then, 15 μL of MTS reagent was added to each well, and the absorbance was assessed at 490 nm with a microplate reader (Dynex Technologies, MRX Revelation; Chantilly, VA, USA) after 1 h incubation with MTS. The data were recorded, and the IC50 value was calculated using non-linear curve regression analysis (Graph pad V8.0, CA, USA).

[2] = test system: MiaPaCa-2; assay: Cell viability assay (MTS), MiaPaCa-2; type: cell-based, human; settings: Homo sapiens, MIA PaCa-2, pancreatic cancer cells, 48 h, mean ± SD
Method: as §1

[3] = test system: HCT-116; assay: Cell viability assay (MTS), HCT-116; type: cell-based, human; settings: Homo sapiens, HCT-116, colon cancer cells, 48 h, mean ± SD
Method: as §1

[4] = test system: HEK-293; assay: Cell viability assay (MTS), HEK-293; type: cell-based; settings: HEK293, human embryonic kidney cells, 48 h, mean ± SD
Method: as §1

[5] = test system: FHC; assay: Cell viability assay (MTS), FHC; type: cell-based; settings: FHC, normal fetal human cells, 48 h, mean ± SD
Method: as §1

[6] = biological target: T1, ALDH1A1 (Homo sapiens, UniProt P00352); assay: ALDH isoform-specific enzyme inhibition assay, ALDH1A1; type: biochemical; settings: 500 nM, Acetaldehyde (Substrate)
T1 construct: purchased R&D systems
T1 sequence (P00352 1-501): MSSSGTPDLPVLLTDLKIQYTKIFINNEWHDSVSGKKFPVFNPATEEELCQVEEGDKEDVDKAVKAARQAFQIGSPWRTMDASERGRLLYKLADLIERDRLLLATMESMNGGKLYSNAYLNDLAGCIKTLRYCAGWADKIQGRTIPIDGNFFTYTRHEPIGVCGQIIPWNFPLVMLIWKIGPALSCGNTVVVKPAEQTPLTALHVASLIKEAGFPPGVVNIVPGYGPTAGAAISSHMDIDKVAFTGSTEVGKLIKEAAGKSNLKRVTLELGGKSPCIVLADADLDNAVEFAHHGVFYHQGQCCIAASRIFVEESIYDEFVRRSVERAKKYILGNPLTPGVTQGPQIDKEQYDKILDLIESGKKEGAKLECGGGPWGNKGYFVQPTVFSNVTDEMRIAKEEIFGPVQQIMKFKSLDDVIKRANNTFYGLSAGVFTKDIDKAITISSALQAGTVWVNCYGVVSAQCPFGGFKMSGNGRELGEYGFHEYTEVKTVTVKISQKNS
Method: (§2) ALDH1A1, ALDH3A1, and ALDH1A3 enzyme inhibition assays were performed as reported previously. Briefly, 500 ng/100 uL of ALDH1A1, ALDH3A1, and ALDH1A3 were treated with 500 nM concentration of the tested compounds and incubated for 15 min followed by the addition of reaction mixture (substrate + Substrate mixture). […] The absorbance was measured at 450 nm. [Absorbance Control–Absorbance treated/Absorbance Control]100 was used to compute the percentage of inhibition.

[7] = biological target: T2, ALDH3A1 (Homo sapiens, UniProt P30838); assay: ALDH isoform-specific enzyme inhibition assay, ALDH3A1; type: biochemical; settings: 500 nM, Acetaldehyde (Substrate)
T2 construct: purchased R&D systems
T2 sequence (P30838 1-453): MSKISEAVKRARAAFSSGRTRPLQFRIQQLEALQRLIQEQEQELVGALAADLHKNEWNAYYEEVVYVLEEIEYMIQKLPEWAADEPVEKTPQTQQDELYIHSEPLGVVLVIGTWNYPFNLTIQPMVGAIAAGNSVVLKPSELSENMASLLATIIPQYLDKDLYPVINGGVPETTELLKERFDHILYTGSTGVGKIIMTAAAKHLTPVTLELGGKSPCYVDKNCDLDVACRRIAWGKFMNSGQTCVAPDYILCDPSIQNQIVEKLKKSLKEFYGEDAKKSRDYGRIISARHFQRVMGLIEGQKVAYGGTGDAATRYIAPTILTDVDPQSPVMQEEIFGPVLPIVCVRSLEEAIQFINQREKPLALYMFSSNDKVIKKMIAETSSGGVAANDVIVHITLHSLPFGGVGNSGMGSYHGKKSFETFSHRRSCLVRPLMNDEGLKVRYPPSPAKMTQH
Method: as §2

[8] = test system: UACC 903 cells; assay: ALDEFLUOR assay; type: cell-based, human; settings: UACC 903 melanoma cells, 1 µM, 24 h
Method: Aldehyde dehydrogenase (ALDH) activity within human melanoma cells was assessed by utilizing the ALDEFLUOR Kit from […] Technologies. […] Post-treatment, cells were washed with PBS, and the ALDEFLUOR assay was performed following the manufacturer’s protocol, employing DEAB as a negative control. ALDH percentages were determined using a BD LSRFortessa flow cytometer (San Jose, CA, USA).

[9] = test system: HCT-116 cells; assay: Apoptosis assay, Muse Caspase-3/7 7-AAD; type: cell-based, human; settings: HCT-116, 3 µM, 24 h, relative to KS100
Method: (§3) The apoptosis assays were carried out following the manufacturer’s instructions using the Muse Caspase-3/7 assay kit and Annexin V/7-AAD kit (Luminex Corp., TX, US). In a 6-well plate, the cells were seeded at a density of 1X105 cells/well. The cells were treated with 3 µM of the compounds following a 24 h incubation period. The cells were cultured for 48 h (Annexin V/7-AAD) as opposed to 24 h (Caspase-3/7 test). Cell Dissociation buffer, an enzyme-free solution, was used to harvest the cells at the end of the treatment period. The samples were then given the appropriate dye treatments following the manufacturer’s instructions.

[10] = test system: HCT-116 cells; assay: Apoptosis assay, Annexin V/7-AAD; type: cell-based, human; settings: HCT-116, 3 µM, 48 h, relative to KS100
Method: as §3

[11] = test system: HCT-116 cells; assay: ROS generation (Muse Oxidative Stress Kit); type: cell-based, human; settings: HCT-116, 3 µM, 24 h, relative to KS100
Method: The Muse® Oxidative Stress Kit (Luminex Corp., Austin, TX, USA) was used to assess the generation of ROS in the HCT-116 cells after the treatment with the compounds. In a 6-well plate, the cells were seeded at a density of 1 × 10^5 cells/well. After 24 h incubation, the cells were treated with the respective compounds with or without 5 mM of N-acetylcysteine (NAC) in the serum-enriched medium for 24 h. At the end of the treatment duration, the cells were harvested, and 10 μL of cells in suspension was added into each tube. Furthermore, 190 μL of Muse Oxidative Stress Reagent working solution was added to each tube. The samples were mixed thoroughly by pipetting up and down or vortexing at medium speed for 3 to 5 s. The samples were incubated for 30 min at 37 °C and analyzed using Muse Cell Analyzer.

[12] = test system: γH2AX in HCT-116 cells; assay: Western blot for γH2AX; type: cell-based, human; settings: HCT-116, 3 µM, 12 h
Method: Western blotting was performed as described previously. The antibodies used were procured from Cell Signaling Technologies. […] The protein was transferred to a 0.45 µm pore membrane (Immobilon®-P PVDF Membrane, EMD Millipore, USA). The membranes were further treated with the respective primary and secondary antibodies. The Western blot images are representative of three independent experiments.

[13] = Cell viability assay (MTS), statements over the cell line panel; type: cell-based, human; settings: human; range or statement over all tested cell lines, 48 h MTS; read-out: IC50 / cytotoxicity against the tested cell lines
Method: as §1

[14] = test system: SKOV-3, MiaPaCa-2, HCT-116, HEK-293, and FHC cell lines; assay: as above; type: cell-based, human; settings: for IC50: Homo sapiens
Method: as §1

[15] = test system: HNSCC xenograft; settings: injected intratumorally ref 29; cited from earlier work

SMILES	IC50 [1] [µM]	IC50 [2] [µM]	IC50 [3] [µM]	IC50 [4] [µM]	IC50 [5] [µM]	inhibition at 0.5 µM [6] [%]	inhibition at 0.5 µM [7] [%]	inhibition of overall ALDH activity (ALDEFLUOR) [8]	more apoptotic cell population than KS100, caspase-3/7 7-AAD [9]	more apoptotic cell population than KS100, Annexin V/7-AAD [10]	more ROS than KS100 [11] [%]	γH2AX protein levels [12]	IC50 at 48 h [13] [µM]	IC50 ([14]; HEK293, FHC and HEK-293, 48 h MTS, read-out: IC50 in normal and embryonic kidney cells) [µM]	IC50 ([14]; Pancreatic cancer cell, ovarian, colon, and pancreatic cancer cells, 48 h MTS, read-out: IC50 in cancer cell lines) [µM]	greater effectiveness than KS100 in targeting cancer cells ([14]; from MTS IC50 values) [times]	reduction of HNSCC xenograft development [15] [%]
O=C(OCc1ccc(CN2C(=O)C(=O)c3cc(Br)cc(Br)c32)cc1)c1ccc([N+](=O)[O-])o1 [Compound 3, 4-((5,7-Dibromo-2,3-dioxoindolin-1-yl)methyl)benzyl 5-nitrofuran-2-carboxylate]	2.2 ± 0.2	3.8 ± 0.4	2.1 ± 0.1	8.7 ± 1.1	7.1 ± 0.8	51.32 ± 0.01	51.87 ± 0.05	~ 2.5 fold	~ 12.8%	~ 13%	34.7	increased γH2AX protein levels	2.1 to 6.8	7.1 to 8.7	2.1 to 3.8	0.5 to 2	
CC(C)CCn1c(CN2CCN(C(=O)C3CC3)CC2)nc2c1c(=O)n(C)c(=O)n2C [NCT-501]																	78
